Our source for the EC50 values is patent US9133115B2 (ACHILLION PHARMACEUTICALS, INC., priority 2008, dated 2015).

As a reminder, the EC50 is the concentration at which the effect is half-maximal.

The test has as its system HCV replicon. Briefly: HCV replicon replication assay (NPT ELISA) in Huh-7 replicon-containing cells. It counts as cell-based. As to conditions: Hepatitis C virus, 72 h; HCV replicon in Huh-7 cells, three days incubation; read-out: EC50. In a few lines:
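Replication was scored by capture ELISA of neomycin phosphotransferase, whose level tracks replicon replication, after graded compound treatment. The cells were Huh-7 harbouring an HCV-IRES/neo/EMCV-IRES/NS3–NS5B/3′-NTR replicon, plated at 6000-7500 cells/well and dosed 24 h later at 60-70% confluence; interferon alpha was the positive control.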
As to `C=C[C@H]1C[C@]1(NC(=O)[C@@H]1C[C@@H](Oc2cc(-c3ccccc3)nc3cc(OC)ccc23)CN1C(=O)[C@H](CC(=O)N1CCCCC1)CC1CCCCC1)C(=O)NS(=O)(=O)C1CC1` [Compound 60, (2S,4R)-1-((S)-2-(cyclohexylmethyl)-4-oxo-4-(piperidin-1-yl)butanoyl)-N-((1R,2R)-1-(cyclopropyl-sulfonylcarbamoyl)-2-vinylcyclopropyl)-4-(7-methoxy-2-phenylquinolin-4-yloxy)pyrrolidine-2-carboxamide], the EC50 fell in the range of 1 to 10 µM.
With `C=C[C@@H]1C[C@]1(NC(=O)[C@@H]1C[C@@H](Oc2cc(-c3ccccc3)nc3cc(OC)ccc23)CN1C(=O)[C@@H](CC(=O)N1CCN(S(=O)(=O)CC)CC1)C(C)(C)C)C(=O)NS(=O)(=O)C1CC1` [Compound 195, (2S,4R)-1-((S)-2-tert-butyl-4-(4-(ethylsulfonyl)piper-azin-1-yl)-4-oxobutanoyl)-N-((1R)-1-(cyclopropylsulfonyl-carbamoyl)-2-vinylcyclopropyl)-4-(7-methoxy-2-phenylquinolin-4-yloxy)pyrrolidine-2-carboxamide] the figure was below 1 µM; with `C=C[C@@H]1C[C@]1(NC(=O)[C@@H]1C[C@@H](NC(=O)c2cc(-c3ccccc3)nc3ccccc23)CN1C(=O)[C@@H](CC(=O)N1CCC(F)(F)C1)C(C)(C)C)C(=O)NS(=O)(=O)C1CC1` [Compound 201, N-((3R,5S)-1-((S)-2-tert-butyl-4-(3,3-difluoropyrrolidin-1-yl)-4-oxobutanoyl)-5-((1R,2S)-1-(cyclopropylsulfonyl-carbamoyl)-2-vinylcyclopropyl-carbamoyl)pyrrolidin-3-yl)-2-phenylquinoline-4-carboxamide], below 1 µM.
`C=C[C@@H]1C[C@]1(NC(=O)[C@@H]1C[C@@H](Oc2cc(-c3ccccc3)nc3cc(OC)ccc23)CN1C(=O)[C@@H](CC(=O)N1CCCC2CCCCC21)C(C)(C)C)C(=O)NS(=O)(=O)C1CC1` (stereo partly drawn) [Compound 183, (2S,4R)-1-((2S)-2-tert-butyl-4-(octa-hydroquinolin-1(2H)-yl)-4-oxobutanoyl)-N-((1R,2S)-1-(cyclopropylsulfonyl-carbamoyl)-2-vinylcyclopropyl)-4-(7-methoxy-2-phenylquinolin-4-yloxy)pyrrolidine-2-carboxamide]: the EC50 is below 1 µM.
The result for `COc1ccc2c(O[C@@H]3C[C@@H](C(=O)N[C@H](C(=O)NS(=O)(=O)C4CC4)C(C)C)N(C(=O)[C@@H](CC(=O)N4CCCCC4)C(C)(C)C)C3)cc(-c3ccccc3)nc2c1` [Compound 110, (2S,4R)-1-((S)-2-tert-butyl-4-oxo-4-(piperidin-1-yl)butanoyl)-N-((S)-1-(cyclopropane-sulfonamido)-3-methyl-1-oxobutan-2-yl)-4-(7-methoxy-2-phenylquinolin-4-yloxy)pyrrolidine-2-carboxamide] reads 1 to 10 µM; that for `C=C[C@@H]1C[C@]1(NC(=O)[C@@H]1C[C@@H](Oc2cc(-c3ccccc3)nc3c4c(ccc23)CCC4)CN1C(=O)[C@@H](CC(=O)N1CCCCC1)C(C)(C)C)C(=O)NS(=O)(=O)C1CC1` [Compound 235, (2S,4R)-l-((S)-2-tert-butyl-4-oxo-4-(piperidin-l-yl)butanoyl)-N-((2S)-l-(cyclopropyl-sulfonylcarbamoyl)-2-vinylcyclopropyl)-4-(2-phenyl-8,9-dihydro-7H-cyclo-penta[h]quinolin-4-yloxy)pyrrolidine-2-carboxamide], below 1 µM.
The result for `C=C[C@@H]1C[C@]1(NC(=O)[C@@H]1C[C@@H](n2nc(-c3ccccc3)c(-c3ccccc3)n2)CN1C(=O)[C@@H](CC(=O)N1CCCCC1)C(C)(C)C)C(=O)NS(=O)(=O)C1CC1` [Compound 139, (2S,4R)-1-((S)-2-tert-butyl-4-oxo-4-(piperidin-1-yl)butanoyl)-N-((1R,2S)-1-(cyclopropyl-sulfonylcarbamoyl)-2-vinylcyclopropyl)-4-(4,5-diphenyl-2H-1,2,3-triazol-2-yl)pyrrolidine-2-carboxamide] reads below 1 µM.
Turning to `C=C[C@@H]1C[C@]1(NC(=O)[C@@H]1C[C@@H](Oc2cc(-c3ccccc3)nc3cc(OC)ccc23)CN1C(=O)[C@@H](CC(=O)N1CC2C3CCC(C)(O3)C2C1)C(C)(C)C)C(=O)NS(=O)(=O)C1CC1` (some centres unmarked) [Compound 170], the concentration giving a half-maximal response (EC50) is below 1 µM.
The result for `CC[C@@H]1C[C@]1(NC(=O)[C@@H]1C[C@@H](Oc2cc(-c3ccccc3)nc3cc(OC)ccc23)CN1C(=O)[C@@H](CC(=O)N1CCCCC1)C(C)(C)C)C(=O)NS(=O)(=O)C1CC1` [Compound 149, (2S,4R)-1-((S)-2-tert-butyl-4-oxo-4-(piperidin-1-yl)butanoyl)-N-((1R,2R)-1-(cyclo-propylsulfonyl-carbamoyl)-2-ethylcyclopropyl)-4-(7-methoxy-2-phenylquinolin-4-yloxy)pyrrolidine-2-carboxamide] reads below 1 µM.
With `COc1ccc2c(O[C@@H]3C[C@@H](C(=O)N[C@H](C(=O)NS(=O)(=O)C4CC4)c4ccccc4)N(C(=O)[C@@H](CC(=O)N4CCCCC4)C(C)(C)C)C3)cc(-c3ccccc3)nc2c1` [Compound 112, (2S,4R)-1-((S)-2-tert-butyl-4-oxo-4-(piperidin-1-yl)butanoyl)-N-((S)-2-(cyclopropane-sulfonamido)-2-oxo-1-phenylethyl)-4-(7-methoxy-2-phenylquinolin-4-yloxy)pyrrolidine-2-carboxamide] the figure was 1 to 10 µM; with `C=C[C@@H]1C[C@]1(NC(=O)[C@H]1C[C@@H](Oc2cc(-c3ccccc3)nc3cc(OC)ccc23)CN1C(=O)[C@@H](CC(=O)N1CCCCC1)C(C)(C)C)C(=O)NS(=O)(=O)C1CC1` [Compound 213, (2R,4R)-1-((S)-2-tert-butyl-4-oxo-4-(piperidin-1-yl)butanoyl)-N-((1R)-1-(cyclo-propylsulfonyl-carbamoyl)-2-vinyl-cyclopropyl)-4-(7-methoxy-2-phenylquinolin-4-yloxy)pyrrolidine-2-carboxamide], below 1 µM; with `C=CCC1(S(=O)(=O)NC(=O)[C@@]2(NC(=O)[C@@H]3C[C@@H](Oc4cc(-c5ccccc5)nc5cc(OC)ccc45)CN3C(=O)[C@@H](CC(=O)N3CCCCC3)C(C)(C)C)C[C@H]2C=C)CC1` [Compound 151], below 1 µM.
With `CCC[C@H](NC(=O)[C@@H]1C[C@@H](Oc2cc(-c3ccccc3)nc3cc(OC)ccc23)CN1C(=O)[C@@H](CC(=O)N1CCCCC1)C(C)(C)C)C(=O)NS(=O)(=O)C1CC1` [Compound 113, (2S,4R)-1-((S)-2-tert-butyl-4-oxo-4-(piperidin-1-yl)butanoyl)-N-((S)-1-(cyclopropanesulfon-amido)-1-oxopentan-2-yl)-4-(7-methoxy-2-phenylquinolin-4-yloxy)pyrrolidine-2-carboxamide], the EC50 is 1 to 10 µM.
With `C=C[C@@H]1C[C@]1(NC(=O)[C@@H]1C[C@@H](Oc2cc(-c3csc(NC(C)C)n3)nc3cc(OC)ccc23)CN1C(=O)[C@@H](CC(=O)N1CCCCC1)C(C)(C)C)C(=O)NS(=O)(=O)C1CC1` [Compound 96, (2S,4R)-1-((S)-2-tert-butyl-4-oxo-4-(piperidin-1-yl)butanoyl)-N-((1R,2S)-1-(cyclopropylsulfonyl-carbamoyl)-2-vinylcyclopropyl)-4-(2-(2-(isopropyl-amino)thiazol-4-yl)-7-methoxyquinolin-4-yloxy)pyrrolidine-2-carboxamide], the EC50 is below 1 µM.
